Measured values: patent US20200354327A1, “COMPOUND HAVING STAT3 INHIBITORY ACTIVITY AND USE THEREOF” (CYTUS H&B CO., LTD., priority 2017, published 2020)

Columns and labels:
caspase-3 and PARP = assay: Western blot of caspase-3 and PARP; type: cell-based, human
Description: (§1) Western blot analysis was performed (Jung J E, et al. FASEB J. 19, 1296-1298 (2005)). The cells were washed two times with PBS and suspended in the lysate (50 mM Tris-HCl, pH 7.4, 350 mM NaCl, 1% Triton X-100, 0.5% Nonidet P-40, 10% glycerol, 0.1% SDS, 1 mM EDTA, 1 mM EGTA, 1 mM Na3VO4, 1 mM PMSF, protease and phosphorylation inhibitor) and the cell membrane and nuclear membrane were crushed to lyse the cells. The insoluble protein fraction was removed by centrifugation, and the supernatant was mixed with SDS electrophoresis buffer and electrophoresis (SDS-PAGE) was performed to detect the protein with the desired antibody and to confirm the protein expression level.

[1] = test system: human malignant glioblastoma; assay: Cell viability of human malignant glioblastoma with or without IL-6; type: cell-based; conditions: treated with IL-6 for 24 or 48 hours or not; various concentrations
U87-MG cells = assay: Cell proliferation assay, U87-MG; type: cell-based, human; conditions: by time period, versus DMSO
Description: Cell proliferation assay was performed as previously described (Won C, et al. Anticancer Res. 30, 481-488 (2010)). In order to analyze the cell proliferation rate, U87-MG and MDA-MB-231 cell lines were dispensed into a 6-well culture dish, then treated with DMSO and ODZ10117 the next day, and stained with crystal violet after 0 h, 24 h, 48 h, and 72 h, and the number of live cells was calculated using a hemocytometer.

STAT3 = STAT3 (Homo sapiens, UniProt P40763); assay: Western blot in STAT3-phosphorylated human malignant glioblastoma; type: cell-based; parameters: endogenous in cells; host or cells: L540, HDLM-2, U87-MG, MDA-MB-231, further human glioblastoma and breast cancer lines
STAT3, sequence (P40763 whole entry): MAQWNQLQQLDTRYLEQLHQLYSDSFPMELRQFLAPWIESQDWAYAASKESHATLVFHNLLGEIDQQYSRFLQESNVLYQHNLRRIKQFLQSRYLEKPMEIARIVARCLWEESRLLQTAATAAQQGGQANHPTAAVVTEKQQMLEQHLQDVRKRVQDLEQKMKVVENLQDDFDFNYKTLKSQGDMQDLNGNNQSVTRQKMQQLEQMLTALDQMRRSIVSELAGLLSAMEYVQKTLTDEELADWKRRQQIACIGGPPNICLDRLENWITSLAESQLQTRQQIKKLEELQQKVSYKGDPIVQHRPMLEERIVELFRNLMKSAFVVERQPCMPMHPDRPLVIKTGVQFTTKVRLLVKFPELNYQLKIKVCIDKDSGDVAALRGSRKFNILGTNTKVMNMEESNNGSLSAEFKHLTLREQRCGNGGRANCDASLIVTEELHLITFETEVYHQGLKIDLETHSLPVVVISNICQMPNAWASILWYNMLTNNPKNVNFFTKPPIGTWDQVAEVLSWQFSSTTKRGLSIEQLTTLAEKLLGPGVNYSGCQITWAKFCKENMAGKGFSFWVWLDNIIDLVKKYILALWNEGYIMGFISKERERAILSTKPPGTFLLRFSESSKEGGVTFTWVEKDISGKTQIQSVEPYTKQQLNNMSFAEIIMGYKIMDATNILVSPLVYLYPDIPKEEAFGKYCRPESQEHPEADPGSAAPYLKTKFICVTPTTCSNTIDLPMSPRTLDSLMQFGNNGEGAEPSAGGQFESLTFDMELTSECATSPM
Description: as §1

SMILES: Clc1ccc(OCc2noc(C(Cl)(Cl)Cl)n2)c(Cl)c1 [ODZ10117, 3-(2,4-dichloro-phenoxymethyl)-5-trichloromethyl-[1,2,4]oxadiazole]
- amount of fragmented caspase-3 and PARP proteins (caspase-3 and PARP): significantly increased the amount of fragmented caspase-3 and PARP proteins
- cell survival [1]: cell survival was inhibited
- cell proliferation (U87-MG cells): effectively inhibited the proliferation of the two cell lines
- phosphorylation of tyrosine 705 of STAT3 (STAT3): inhibited the phosphorylation of tyrosine 705 of STAT3 in STAT3-phosphorylated human malignant glioblastoma in a concentration-dependent manner
- time to complete inhibition of phosphorylation of STAT3 after treatment (STAT3): ≤ 2 h
- STAT3 inhibitory efficacy compared with known inhibitors (STAT3; versus NSC628869 and NSC74859): superior STAT3 inhibitory efficacy to NSC628869 and NSC74859
